Each block holds one molecule with its values, some of them ahead of it.
Key:
[1] = system: HCC cells (HLE, HLF, PLC/DC/19, Hep3B, PLC/PRF/5); test: 72-hour proliferation assay, all HCC cells; type: cell-based, human; settings: Homo sapiens, same experimental conditions
Experimental: (§1) Proliferation assay: In 100 μl complete medium, 3,000 cells were seeded in wells of a 96-well plate and left overnight to allow complete attachment. The next day (at time t=0 hours), the medium was removed and replaced with 100 μl of fresh medium in the presence/absence of Sorafenib (2.5 μM), Regorafenib (2.5 μM), rhPRG4 (12.5 to 100 μg/ml). Dimethyl sulfoxide (DMSO) and PBS+0.01% Tween-20 were used as vehicles of Sorafenib/Regorafenib, and rhPRG4, respectively. Cells in triplicate wells for each cell line were fixed at t=0 hours with 4% paraformaldehyde (PFA, pH 7.6, 10 min incubation), then stained with crystal violet (CV) and thoroughly washed to remove the excess staining. After 72 hours, the cells were fixed by adding 100 μl of 4% PFA directly to the medium (2% final PFA concentration, 20 min incubation), and processed for CV staining as previously described. Then, 100 or 200 μl of 1% sodium dodecyl-sulphate were added to the wells and the plates were left under shaking until complete CV release from stained cells. Optical density was at 595 nm wavelength measured using a plate reader.

CD44-shRNA HCC cells = test: 72-hour proliferation assay, CD44-silenced HCC cells; type: cell-based, human; settings: 2.5 μM drug; rhPRG4 0 to 100 μg/ml; p<0.05 to p<0.001
Source text: Stable CD44 silencing: HLE and HLF cell lines were transduced with lentiviral particles carrying control non-targeting (V), or specific CD44-targeting shRNA sequences (A to D), and selected with puromycin dihydrochloride (Thermo Fisher Scientific) to obtain stable CD44 silencing, according to manufacturer instructions (OriGene Technologies, Inc., Rockville, Md. 20850, USA). Control-shRNA sequence (V) and CD44-shRNA sequence B were used in all the experiments involving CD44 downregulation.
as §1, with “After 72 hours, the cells were fixed by adding 100 μl of 4% PFA directly to the medium (2% final PFA concentration, 20 min incubation), and processed for CV staining as previously described. Then, 100 or 200 μl of 1% sodium dodecyl-sulphate were added to the wells and the plates were left under shaking until complete CV release from stained cells.” left out

CD44-IgG1Fc = molecular target: T1, CD44-IgG1Fc (Homo sapiens, UniProt P16070); test: Direct ELISA: binding of coated macromolecules to CD44-IgG1Fc; settings: for percentage binding to CD44 of enzyme-digested rhPRG4 compared to untreated control: coating 30 μg/mL, digestion 16 hours at 37° C.
T1 construct: purchased R & D systems
T1 sequence (P16070 with tags, fused parts or gaps limits assumed): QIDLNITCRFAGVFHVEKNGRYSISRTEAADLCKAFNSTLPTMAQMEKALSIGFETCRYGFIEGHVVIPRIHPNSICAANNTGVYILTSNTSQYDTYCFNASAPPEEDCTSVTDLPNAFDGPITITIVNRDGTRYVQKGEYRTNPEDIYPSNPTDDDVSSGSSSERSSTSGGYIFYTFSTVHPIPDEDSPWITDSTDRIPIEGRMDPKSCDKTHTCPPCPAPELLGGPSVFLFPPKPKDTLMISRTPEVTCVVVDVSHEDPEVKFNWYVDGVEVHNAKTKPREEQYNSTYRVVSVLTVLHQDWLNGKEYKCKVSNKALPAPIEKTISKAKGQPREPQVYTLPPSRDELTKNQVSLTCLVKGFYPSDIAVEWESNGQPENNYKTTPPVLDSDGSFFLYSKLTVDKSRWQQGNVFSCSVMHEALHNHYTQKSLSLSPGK
Experimental: High-binding microtiter plates (Corning, Sigma Aldrich, USA) were coated with rhPRG4 (Mr≅240 KDa), high molecular weight HA (HMW HA; Mr≅1,500 KDa) (R & D System, USA), medium molecular weight HA (MMW HA; Mr≅′300KDa) (R & D System) and vitronectin KDa) (Sigma Aldrich) at 400 μg/mL in PBS buffer (100 μL per well) overnight at 4° C. rhPRG4 is a full-length product produced by CHO-M cells (Lubris, Framingham, Mass., USA). Following washing with PBS+0.1% Tween 20, wells were blocked with 2% bovine serum albumin (BSA; 300 μL per well) for at least 2 hours at room temperature. CD44-IgG1Fc (R & D systems) or IgG1Fc (R & D systems), each at 1 μg/mL (100 μl per well), were added to the plate and incubated for 60 min at room temperature. Following washing with PBS+0.1% tween 20, anti-IgG1Fc-HRP (Sigma Aldrich) was added at 1:10,000 dilution (100 μL per well) and incubated for 60 min at room temp. Following washing with PBS+0.1% tween 20, the assay was developed using 1-step Turbo TMB ELISA reagent (ThermoScientific, USA) and absorbance was measured at 450 nm. The data represents an average of 4 independent assays, each with triplicate wells per group.
The concentration-dependent binding of rhPRG4, HMW HA and MMW HA to CD44 was performed by coating microtiter plates with 400, 200, 100, 20, 4, 2 and 0.1 μg/mL of the macromolecules. The assay was performed as described above. The absorbance values in the IgG1Fc wells were subtracted from the absorbance values in the CD44 IgG1Fc wells and the corrected CD44 IgG1Fc absorbance values were normalized to those of the 400 μg/mL rhPRG4 group and data was expressed as percentage binding to CD44. The concentration-dependent binding of rhPRG4, HMW HA and MMW HA to recombinant CD44 is depicted in FIG. 1B. […] The data represents an average of 4 independent assays, each with triplicate wells per group.
rhPRG4 was digested using sialidase A (Prozyme, USA), O-glycosidase (New England Biolabs, USA) or a combination of sialidase A and O-glycosidase for 16 hours at 37° C. In the sialidase A digestion, 12 μL of the enzyme (1U/200 μL) was added to rhPRG4 in a total reaction volume of 180 μL and a rhPRG4 final concentration of 300 μg/mL. In the O-glycosidase digestion, 4.8 μL of the enzyme (40million units/mL) was added to rhPRG4 in a total reaction volume of 180 μL and a rhPRG4 final concentration of 300 μg/mL under non-denaturing conditions. In the sialidase-A and O-glycosidase digestion, the enzymes were used in volumes identical to the ones stated above and incubated with rhPRG4 in a total reaction volume and final rhPRG4 concentration as stated above. The effect of sialidase-A and O-glycosidase digestions on rhPRG4 apparent molecular weight was determined by SDS-PAGE using 4-12% Bis-Tris gel (NuPage, life technologies, USA). A total of 20 μL of rhPRG4 or enzyme-digested rhPRG4 was run under reducing conditions ([…] for 60 min) followed by staining using Gelcode Blue Stain (Thermo Scientific, USA). Binding of enzymatically digested rhPRG4 to CD44 was compared to undigested rhPRG4 using the direct ELISA approach described above and using an rhPRG4 coating concentration of 30 μg/mL. Data represents the average of 4 independent experiments, each with triplicate wells per group.

lubricin (PRG4) mRNA = test: PRG4 mRNA expression in CAFs and ex vivo HCC specimens; type: cell-based, human
Experimental: RNA extraction and cDNA synthesis: […] of frozen ex-vivo treated HCC tissues were ground with a mortar-pestle in the presence of liquid nitrogen until a thin powder was obtained. The ground tissues were lysed with 0.5-1 ml of RLT buffer+1% (BME) and then processed according to the manufacturer's recommendations (RNeasy kit, Qiagen). […] The obtained RNA was assayed for quality and concentration using the NanoDrop 2000/2000c (Thermo Fisher Scientific). cDNA was synthetized using the High Capacity cDNA reverse transcription kit (Thermo Fisher Scientific), according to relative datasheet.
Real time PCR: One ng/μl of cDNA was used in total 20 μl reaction mix in the presence of 500 nM of each forward and reverse primer referred to a specific gene of interest, and 2×SYBR green master mix (Bio-Rad). The reaction was conducted in a CFX96 Touch Real-Time Detection System (Bio-Rad).
CAFs isolation: Immediately after surgical resection, HCC tumoral and peritumoral specimens were minced into 0.5-1 cm pieces and left in MACS Tissue Storage Solution (Miltenyi Biotec). The tissues were then further cut into smaller size pieces (1-2 mm), washed three times in Hanks balanced salt solution (HBSS), and then incubated in HBSS in the presence of type IV collagenase (Thermo Fisher Scientific) and 3 mM CaCl2 at 37° C. under gentle rotation for 4 hours. At the end of this step, the dissociation was mechanically facilitated by pipetting up-down the digested tissues with a large size orifice 50 ml pipette. The floating cells were collected and washed three times with HBSS and seeded in normal culture conditions in IMDM+20% FBS. The decanted, partially digested tissue specimens were subjected to a second round of digestion (as previously described). The resulting dissociated cells were washed with HBSS and cultured in IMDM+20% FBS. […] The presence of minimal contaminating non-fibroblastic cells (mostly cancerous hepatocytes, cholangiocytes and macrophages) was evaluated using antibodies to EpCAM, CD45, and CD11b.

[2] = system: MDA-MB-231 cell-derived organoids; test: Three-dimensional Matrigel culture, proportion of spherical vs invasive organoids; type: cell-based, human; settings: for TGFβ-induced invasive growth of organoids: rhPRG4 0.1, 10, 100 μg/mL, 4-MU 0.5 mM
Experimental: For three-dimensional culture assays, 50 μl of ice-cooled 33% growth factor-reduced Matrigel (Corning Incorporated, USA) in complete growth medium, consisting of DMEM containing 10% FBS, penicillin, streptomycin and amphotericin B (Invitrogen, Canada), was added per well of a 96-well flat bottom, ultra-low attachment plate (BD Biosciences, Canada) followed by storing the plate for 1 hour in a 5% CO2 humidified incubator at 37° C. to allow formation of a 1 mm-thick Matrigel bed in the well. Next, approximately 400 isolated MDA-MB-231 cells, suspended in 50 μl ice-cooled 50% Matrigel in complete growth medium, were layered on top of the Matrigel bed per well of the 96-well plate and incubated inside 5% CO2 humidified incubator at 37° C. One hour post addition and 37° C. incubation of Matrigel-cells suspension, 50 μl of complete growth medium was added to cover the solidified Matrigel-cells mixture. The following day and, every third day, the three-dimensional cultures received 50 μl of fresh complete growth medium without or with specified reagents as listed in the figure descriptions. On Day 8 of culture, differential interference contrast (DIC) images were captured of 8 representative organoids from each well, using light microscopy at 30× objective (Olympus IX70, Canada). […] Number of smooth surfaced organoids without any protrusions, designated as “spherical” were counted out of eight representative images in each well and then percentage of spherical organoids in each condition were plotted in bar graphs. Each experiment was performed at least three independent times for statistical analyses.

MDA-MB-231 cells = test: In vitro trans-well invasion assay; type: cell-based, human; settings: 100 pM TGFβ; 400 μg/mL LMWHA
Experimental: Overnight 0.2% FBS-containing DMEM incubated, i.e. serum-starved, MDA-MB-231 cells were used for the transwell invasion using polycarbonate filters (24-well insert, pore size 8 μm; BD Biosciences, Canada). Prior to addition of cells, each insert was placed within a well of a 24-well tissue culture plate and equilibrated with 0.5 mL serum-free DMEM, added both to the upper and lower chambers at 37° C. for 2 h. The equilibration media was then gently removed and upper chamber surface of the insert was coated with 50 μL of 3% Matrigel and allowed to solidify at 37° C. for 1 h. 1×10^5 serum-starved MDA-MB-231 cells were resuspended in 0.5 mL of serum-free DMEM and added to the upper Matrigel-coated chamber. 500 μL complete growth medium alone or containing specific reagents, as described in the respective figure descriptions, was added to the lower chambers. Cells were allowed to invade the matrix for 12 h at 37° C. after which non-adherent cells were removed by PBS washing of cell layers on the upper chamber three times. During the second wash a cotton tip applicator was used to gently scrape away the adherent cells on the upper surface of the membrane. Invading cells were fixed by immersing the transwell inserts in 100% methanol for 10 minutes at −20° C., followed by staining with 0.5% crystal violet dye (EMD Millipore, Canada) for 1 h at room temperature. Eight randomly chosen fields of each stained membrane were imaged at 10× objective of a DIC microscope (Olympus IX70) coupled to a digital camera. Cell numbers were obtained by counting the number of crystal violet stained cells in each field using a handheld counter. The average cell numbers for all images per treatment conditions were calculated and used for further statistical analysis. Each experiment was performed at least three independent times.

Molecule: O-glycosidase digested rhPRG4: rhPRG4 digested using O-glycosidase for 16 hours at 37° C.
percentage binding to CD44 of enzyme-digested rhPRG4 compared to untreated control (CD44-IgG1Fc): significant increase

Molecule: Cc1cccc(-c2nn3c(c2-c2ccnc4ccc(C(N)=O)cc24)CCC3)n1 [LY2157299, galunisertib]
expression of lubricin in comparison to controls (lubricin (PRG4) mRNA; LY2157299 alone, 48 hours): downregulated the expression of lubricin | effect on TGFβ-enhanced expression of lubricin (lubricin (PRG4) mRNA; TGFβ plus LY2157299, 48 hours, p<0.01): offset this effect

Molecule: Cc1cc(=O)oc2cc(O)ccc12 [4-MU, 4-methylumbelliferone, reference compound]
TGFβ-induced invasive growth of organoids ([2]; 100 pM TGFβ, 8-day, KI 10 μM): suppressed TGFβ-induced invasive growth

Molecule: NC(=O)c1ccc(-c2nc(-c3ccc4c(c3)OCO4)c(-c3ccccn3)[nH]2)cc1 [KI, SB431542, reference compound]
TGFβ-induced invasive growth of organoids ([2]; 100 pM TGFβ, 8-day, KI 10 μM): suppressed the TGFβ-induced invasive growth | LMWHA-induced invasive growth of organoids ([2]; LMWHA 10-400 μg/mL, 100 μg/mL rhPRG4, KI 10 μM): could not reverse the LMWHA effect

Molecule: Sodium Hyaluronate [LMWHA, reference compound]
invasive growth of organoids, stimulus alone ([2]; 100 pM TGFβ, LMWHA 10, 100 or 400 μg/mL, 8-day): increase the proportion of invasive organoids | invasion of cells, stimulus alone vs untreated control (MDA-MB-231 cells): increased the proportion of invading cells

Now from value to molecule, other results behind:

IC50 [1]: ~5 µM
Molecule: CNC(=O)c1cc(Oc2ccc(NC(=O)Nc3ccc(Cl)c(C(F)(F)F)c3)cc2)ccn1 [Sorafenib]
capacity in inhibiting cells proliferation in CD44 silenced cells compared to control cells (CD44-shRNA HCC cells): significantly reduced

450 nm absorbance in the CD44-IgG1Fc group vs the IgG1Fc group (CD44-IgG1Fc; wells coated at 400 μg/mL, CD44-IgG1Fc or IgG1Fc at 1 μg/mL): no significant difference
Molecule: vitronectin: vitronectin (Sigma Aldrich), shares sequence homology with lubricin [reference compound]

IC50 [1]: ~5 µM
Molecule: CNC(=O)c1cc(Oc2ccc(NC(=O)Nc3ccc(Cl)c(C(F)(F)F)c3)c(F)c2)ccn1 [Regorafenib]
capacity in inhibiting cells proliferation in CD44 silenced cells compared to control cells (CD44-shRNA HCC cells): significantly reduced

percentage binding to CD44 of enzyme-digested rhPRG4 compared to untreated control (CD44-IgG1Fc): significantly higher
Molecule: sialidase-A and O-glycosidase-digested rhPRG4: rhPRG4 digested using a combination of sialidase A and O-glycosidase

percentage binding to CD44 of enzyme-digested rhPRG4 compared to untreated control (CD44-IgG1Fc): significant increase
Molecule: sialidase-A digested rhPRG4: rhPRG4 digested using sialidase A for 16 hours at 37° C.

Reference: patent publication US20220332839A1, “USE OF PRG4 TO TREAT CANCER” (Lubris LLC, priority 2019, published 2022)
